Counter-ions that a name gives are not always drawn.

T1 sequence (P31749 118-480 limits assumed): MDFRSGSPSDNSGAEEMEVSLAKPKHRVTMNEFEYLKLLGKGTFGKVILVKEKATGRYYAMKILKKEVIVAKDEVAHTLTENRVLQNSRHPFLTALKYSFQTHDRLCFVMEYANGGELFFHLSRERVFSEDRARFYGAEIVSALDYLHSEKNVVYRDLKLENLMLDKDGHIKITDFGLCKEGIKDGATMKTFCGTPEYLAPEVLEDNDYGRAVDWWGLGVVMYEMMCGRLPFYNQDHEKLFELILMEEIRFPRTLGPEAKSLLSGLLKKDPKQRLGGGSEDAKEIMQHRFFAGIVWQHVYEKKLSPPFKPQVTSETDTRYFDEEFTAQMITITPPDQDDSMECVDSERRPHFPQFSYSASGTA

The assay has as its target T1, PKBα (Homo sapiens, UniProt P31749).
T1 construct: the full length PKBα and a kinase domain of PKBα with pleckstrin domain (amino acids 1-117) deleted
Nature of the assay: PKB kinase assay (P33-labeled ATP, synthetic peptide substrate, filter plate capture). It counts as biochemical. To be noted: with respect to PKBα. The text has this:
The kinase assay for evaluating PKB activity comprises active PKB enzymes, a PKB specific substrate, and P^33-labeled ATP. Two form of PKBα enzymes were used, the full length PKBα and a kinase domain of PKBα with pleckstrin domain (amino acids 1-117) deleted. Both PKB enzymes were obtained from Upstate cell signaling solutions (Cat. #14-276 and 14-341). The PKB substrate used is a synthetic peptide (ARKRERTYSFGHHA (SEQ ID NO: 1)) as described in Obata et al., J. Biol. Chem. 275 (46), 36108-36115 (2000). The phosphorylated substrate was captured by a phosphocellulose membrane filter plate (MILLIPORE) and measured by a Wallac Microbeta liquid scintillation counter (Perkin Elmer). Table 1 provides the IC50 values obtained for each of the examples with respect to PKBα.
With `CCC(O)CNc1nnc(-c2ccc3cnccc3c2)s1` (racemic) [Example 23, (±)-1-(5-(Isoquinolin-6-yl)-1,3,4-thiadiazol-2-ylamino)butan-2-ol], the IC50 was 1000 to 10000 nM.
With `N[C@H](CNc1nnc(-c2ccc3c(c2)CC(=O)N3)s1)Cc1ccc(Cl)cc1` [Example 34, 5-(5-((S)-2-Amino-3-(4-chlorophenyl)propylamino)-1,3,4-thiadiazol-2-yl)indolin-2-one], the IC50 is < 50 nM.
`c1ccc([C@@H]2CCN[C@@H]2CNc2nnc(-c3ccc4cnccc4c3)s2)cc1` (racemic) [Example 33, Racemic mixture of 5-(isoquinolin-6-yl)-N-(((2S,3S)-3-phenylpyrrolidin-2-yl)methyl)-1,3,4-thiadiazol-2-amine and 5-(isoquinolin-6-yl)-N-(((2R,3R)-3-phenylpyrrolidin-2-yl)methyl)-1,3,4-thiadiazol-2-amine]: the IC50 was 50 to 1000 nM.
In turn, `c1ccc2[nH]c(CNc3nnc(-c4ccc5cnccc5c4)s3)nc2c1` [Example 18, N-((1H-Benzo[d]imidazol-2-yl)methyl)-5-(isoquinolin-6-yl)-1,3,4-thiadiazol-2-amine] returned a half-inhibitory concentration (IC50) of 1000 to 10000 nM.
In the case of `N[C@H](CNc1nnc(-c2ccc3c(c2)CC(=O)N3)s1)[C@@H](O)c1ccc(C(F)(F)F)cc1` [Example 51, 5-(5-((2R,3S)-2-Amino-3-hydroxy-3-(4-(trifluoromethyl)phenyl)propylamino)-1,3,4-thiadiazol-2-yl)indolin-2-one trifluoroacetate], the concentration for half-maximal inhibition (IC50) was < 50 nM.
In the case of `N[C@H](CNc1nnc(-c2ccc3cnsc3c2)s1)Cc1ccc(C(F)(F)F)cc1` [Example 42, N-((S)-2-Amino-3-(4-(trifluoromethyl)phenyl)propyl)-5-(benzo[d]isothiazol-6-yl)-1,3,4-thiadiazol-2-amine], the IC50 was < 50 nM.
The value for `CC(Nc1nnc(-c2ccc3cnccc3c2)s1)c1ccco1` (racemic) [Example 22, (±)-N-(1-(Furan-2-yl)ethyl)-5-(isoquinolin-6-yl)-1,3,4-thiadiazol-2-amine] was 1000 to 10000 nM; that for `NC(CNc1nnc(-c2cccc3cnncc23)s1)Cc1ccc(C(F)(F)F)cc1` (stereo in doubt) [Example 28, N-((S)-2-amino-3-(4-(trifluoromethyl)phenyl)propyl)-5-(phthalazin-5-yl)-1,3,4-thiadiazol-2-amine] was 1000 to 10000 nM; that for `N[C@H](CNc1nnc(-c2ccc3cnc(F)cc3c2)s1)Cc1ccc(C(F)(F)F)nc1` [Example 44, N-((S)-2-Amino-3-(6-(trifluoromethyl)pyridin-3-yl)propyl)-5-(3-fluoroisoquinolin-6-yl)-1,3,4-thiadiazol-2-amine trifluoroacetate] was < 50 nM.
The value for `O=C(Nc1nnc(-c2ccc3cnccc3c2)s1)[C@@H]1NCC[C@@H]1c1ccccc1` (racemic) [Example 26, (±)-cis-N-(5-(Isoquinolin-6-yl)-1,3,4-thiadiazol-2-yl)-3-phenylpyrrolidine-2-carboxamide] was 50 to 1000 nM.
For `N[C@H](CNc1nnc(-c2cc3c(Cl)cncc3s2)s1)Cc1cccc(C(F)(F)F)c1` [Example 8, N-((S)-2-amino-3-(3-(trifluoromethyl)phenyl)propyl)-5-(4-chlorothieno[2,3-c]pyridin-2-yl)-1,3,4-thiadiazol-2-amine], the IC50 was in the range of 50 to 1000 nM.
As to `OC(CNc1nnc(-c2ccc3cnccc3c2)s1)Cc1ccccc1` (racemic) [Example 29, (±)-1-(5-(isoquinolin-6-yl)-1,3,4-thiadiazol-2-ylamino)-3-phenylpropan-2-ol], the IC50 was 50 to 1000 nM.
Regarding `Cn1c(=O)[nH]c2ccc(-c3nnc(NC[C@@H](N)Cc4ccc(C(F)(F)F)cc4)s3)cc21` [Example 1, 6-(5-((S)-2-Amino-3-(4-(trifluoromethyl)phenyl)propylamino)-1,3,4-thiadiazol-2-yl)-1-methyl-1H-benzo[d]imidazol-2(3H)-one], the IC50 is < 50 nM.
Turning to `N[C@H](CNc1nnc(-c2ccc3[nH]c(=O)oc3c2)s1)Cc1ccc(Cl)cc1` [Example 50, 6-(5-((S)-2-Amino-3-(4-chlorophenyl)propylamino)-1,3,4-thiadiazol-2-yl)benzo[d]oxazol-2(3H)-one], the IC50 is < 50 nM.
The value for `N[C@H](CNc1nnc(-c2cc3ccncc3s2)s1)Cc1ccc(C(F)(F)F)cc1` [Example 10, N-((S)-2-Amino-3-(4-(trifluoromethyl)phenyl)propyl)-5-(thieno[2,3-c]pyridin-2-yl)-1,3,4-thiadiazol-2-amine] was < 50 nM.
Consider `N[C@H](CCc1nnc(-c2ccc3c(c2)CC(=O)N3)s1)Cc1ccc(C(F)(F)F)nc1` [Example 47, 5-(5-((R)-3-Amino-4-(6-(trifluoromethyl)pyridin-3-yl)butyl)-1,3,4-thiadiazol-2-yl)indolin-2-one trifluoroacetate], for which the IC50 was 50 to 1000 nM.
The value for `N[C@H](CNc1nnc(-c2cc3c(Cl)cncc3s2)s1)Cc1cc(F)cc(F)c1` [Example 14, N-((S)-2-Amino-3-(3,5-difluorophenyl)propyl)-5-(4-chlorothieno[2,3-c]pyridin-2-yl)-1,3,4-thiadiazol-2-amine] was 50 to 1000 nM.
`CC(F)(F)c1ccc(C[C@H](N)CNc2nnc(-c3ccc4c(c3)CC(=O)N4)s2)cc1` [Example 4, 5-(5-((S)-2-Amino-3-(4-(1,1-difluoroethyl)phenyl)propylamino)-1,3,4-thiadiazol-2-yl)indolin-2-one]: the IC50 is < 50 nM.
Compound `c1ccc2[nH]c(CCNc3nnc(-c4ccc5cnccc5c4)s3)nc2c1` [Example 19, N-(2-(1H-Benzo[d]imidazol-2-yl)ethyl)-5-(isoquinolin-6-yl)-1,3,4-thiadiazol-2-amine] gave an IC50 of 1000 to 10000 nM.
Compound `Cc1cccc(C[C@H](N)CNc2nnc(-c3cc4c(Cl)cncc4s3)s2)c1` [Example 13, N-((S)-2-Amino-3-m-tolylpropyl)-5-(4-chlorothieno[2,3-c]pyridin-2-yl)-1,3,4-thiadiazol-2-amine] showed an IC50 of 50 to 1000 nM.
In turn, `N[C@H](CNc1nnc(-c2cc3c(cc2F)NC(=O)C3)s1)Cc1ccc(C(F)(F)F)cc1` [Example 3, 5-(5-((S)-2-Amino-3-(4-(trifluoromethyl)phenyl)propylamino)-1,3,4-thiadiazol-2-yl)-6-fluoroindolin-2-one] returned a 50% inhibitory concentration (IC50) of 50 to 1000 nM.
`FC(F)(F)c1ccc([C@@H]2CCN[C@@H]2CNc2nnc(-c3ccc4cnccc4c3)s2)cc1` [Example 27, 5-(Isoquinolin-6-yl)-N-(((2S,3S)-3-(4-(trifluoromethyl)phenyl)pyrrolidin-2-yl)methyl)-1,3,4-thiadiazol-2-amine] showed an IC50 of 1000 to 10000 nM.
As for `N[C@H](CCc1nnc(-c2ccc3[nH]ncc3c2)s1)Cc1ccc(C(F)(F)F)nc1` [Example 46, (2R)-4-(5-(1H-Indazol-5-yl)-1,3,4-thiadiazol-2-yl)-1-(6-(trifluoromethyl)pyridin-3-yl)butan-2-amine], the IC50 was < 50 nM.
Compound `CC(C)=C1C(=O)Nc2ccc(-c3nnc(NC[C@@H](N)Cc4ccc(C(F)(F)F)cc4)s3)cc21` [Example 6, 5-(5-((S)-2-Amino-3-(4-(trifluoromethyl)phenyl)propylamino)-1,3,4-thiadiazol-2-yl)-3-(propan-2-ylidene)indolin-2-one] had an IC50 of 1000 to 10000 nM.
As for `N[C@H](CCc1nnc(-c2ccc3cnc(F)cc3c2)s1)Cc1ccc(C(F)(F)F)nc1` [Example 45, (2R)-4-(5-(3-Fluoroisoquinolin-6-yl)-1,3,4-thiadiazol-2-yl)-1-(6-(trifluoromethyl)pyridin-3-yl)butan-2-amine], the half-maximal inhibitory concentration (IC50) is < 50 nM.
With `N[C@H](CNc1nnc(-c2cc3c(Cl)cncc3s2)s1)Cc1ccc(C(F)(F)F)cc1` [Example 9, N-((S)-2-amino-3-(4-(trifluoromethyl)phenyl)propyl)-5-(4-chlorothieno[2,3-c]pyridin-2-yl)-1,3,4-thiadiazol-2-amine], the IC50 lay within 50 to 1000 nM.
As for `N[C@H](CCc1nnc(-c2ccc3cnccc3c2)s1)Cc1ccc(C(F)(F)F)cc1` [Example 35, (2R)-4-(5-(Isoquinolin-6-yl)-1,3,4-thiadiazol-2-yl)-1-(4-(trifluoromethyl)phenyl)butan-2-amine], the 50% inhibitory concentration (IC50) was < 50 nM.
In the case of `O[C@@H]1CCCC[C@H]1CNc1nnc(-c2ccc3cnccc3c2)s1` [Example 17, (1R,2S)-2-((5-(Isoquinolin-6-yl)-1,3,4-thiadiazol-2-ylamino)methyl)cyclohexanol], the IC50 is 50 to 1000 nM.
In turn, `OC[C@H](Nc1nnc(-c2ccc3cnccc3c2)s1)[C@@H](O)c1ccccc1` [Example 16, (1S,2S)-2-(5-(Isoquinolin-6-yl)-1,3,4-thiadiazol-2-ylamino)-1-phenylpropane-1,3-diol] had an IC50 of 1000 to 10000 nM.
`C[C@@H](c1ccc(C(F)(F)F)cc1)[C@H](N)CNc1nnc(-c2ccc3c(c2)CC(=O)N3)s1` [Example 7, 5-(5-((2S,3S)-2-Amino-3-(4-(trifluoromethyl)phenyl)butylamino)-1,3,4-thiadiazol-2-yl)indolin-2-one]: the half-maximal inhibitory concentration (IC50) was < 50 nM.
As for `Oc1cccc(C(O)CNc2nnc(-c3ccc4cnccc4c3)s2)c1` (racemic) [Example 24, (±)-3-(1-Hydroxy-2-(5-(isoquinolin-6-yl)-1,3,4-thiadiazol-2-ylamino)ethyl)phenol], the IC50 fell in the range of 1000 to 10000 nM.
Consider `N[C@H](CNc1nnc(-c2cc3c(Cl)cncc3s2)s1)Cc1ccccc1` [Example 12, N-((S)-2-Amino-3-phenylpropyl)-5-(4-chlorothieno[2,3-c]pyridin-2-yl)-1,3,4-thiadiazol-2-amine], for which the IC50 was in the range of 50 to 1000 nM.
The same measure for `CC1(C)C2CCC1(C)C(Nc1nnc(-c3ccc4cnccc4c3)s1)C2` (stereo not drawn) [Example 20, 5-(Isoquinolin-6-yl)-N-(1,7,7-trimethylbicyclo[2.2.1]heptan-2-yl)-1,3,4-thiadiazol-2-amine]: 1000 to 10000 nM.

These data come from US7919504B2, “Thiadiazole modulators of PKB” (Amgen Inc., priority 2007, dated 2011).
